The record followed here is patent US20180030091A1, “COLLAGEN-BINDING SYNTHETIC PEPTIDOGLYCANS FOR USE IN VASCULAR INTERVENTION” (Purdue Research Foundation, priority 2010, published 2018).

“Also recorded” adds a separate entry of the source. Where no end group is shown, it is not given here.

The Kd is the equilibrium constant for the complex coming apart. The low end stands for a tighter complex, the high end for a looser complex.

Assay [1] deals with Fibrillar collagen. The assay is described as follows: Binding affinity of biotin labeled peptidoglycan to fibrillar collagen. The following applies: biotin labeled peptidoglycans, fitted saturation binding curves. Here is the method: Fibrillar collagen (Chronolog, Havertown, Pa.) was coated onto the surface of a 96-well high bind plate (Costar) at a concentration of 50 μg/mL diluted in isotonic glucose. Plates were covered and incubated overnight at 4° C. Unbound collagen was removed by rinsing 3 times with 1×PBS pH 7.4. Plates were then blocked with 1% BSA for 3 hours at room temperature. Peptidoglycan was dissolved at varying concentrations in 1×PBS pH 7.4 containing 1% BSA and were immediately added to the collagen surfaces, and allowed to incubate for 15 min at room temperature. Plates were then rinsed 3 times with 1×PBS pH 7.4 containing 1% BSA. Streptavidin-HRP solution (R&D Systems, Minneapolis, Minn.) was then added to the plates and incubated for 20 minutes at room temperature. […] The color evolving reaction was stopped with 50 μL 2N sulfuric acid and absorbance was measured at 450 nm using an M5 UV Vis Spectrophotometer (Molecular Devices). Plate imperfections (540 nm) were subtracted from absorbance values.
The binding affinities of biotin labeled peptidoglycans, labeled using protocols known in the art, DS-SILY4 and DS-SILY18 were calculated by fitting the saturation binding curves and calculating the inflection point. […]

For assay [2], the system named is Whole blood on fibrillar collagen. The assay is described as follows: Inhibition of whole blood binding to collagen under flow. In kind it is cell-based. Particulars: 50 μM for 15 min; 5.6 mL/hr, shear rate 1000 s^−1, 5 min of flow. The method, then:
Flow kits were obtained from Ibidi (Martinsried, Germany). Each channel was coated with fibrillar collagen as described for static microplate studies. Excess collagen was removed from the flow channel by extensive rinsing with 1×PBS through the channel. DS-SILY18 was incubated in the channel at a concentration of 50 μM for 15 min at 37° C., and unbound peptidoglycan was rinsed with 1×PBS. Control channels consisted of collagen not treated with peptidoglycan.
Whole blood was pushed through the flow channels by a syringe pump at a flow rate of 5.6 mL/hr, corresponding to a physiologically relevant shear rate of 1000 s^−1 (Badimon L, Badimon J J, Turitto V T, Vallabhajosula S, Fuster V. Platelet thrombus formation on collagen type I—a model of deep vessel injury—influence of blood rheology, von Willebrand Factor, and blood-coagulation. Circulation 1988; 78(6):1431-42). After 5 min of flow, 1×PBS pH 7.4 was pushed through at the same flow rate for 10 min to wash unbound cells. Brightfield images (n=3) were taken of each flow channel with a 10× objective. Images were thresholded and quantified for cellular coverage using ImageJ (NIH, Bethesda, Md.) and MatLab (Mathworks, Natick, Mass.) respectively. Control channels were assumed to have complete cellular coverage.

Assay [3] relates to Human platelets on Type I fibrillar collagen. Nature of the assay: Inhibition of platelet activation on fibrillar collagen after 24 hour rinse (PF4, NAP2). In kind it is cell-based. The following applies: unbound peptidoglycan rinsed over 24 hours; PF-4 and Nap-2 release. The method, then:
Type I fibrillar collagen from Chronolog was diluted in isotonic glucose to a concentration of 50 μg/mL. 50 μL of collagen solution was added to each well of a high bind 96-well plate. The plate was incubated overnight at 4° C., and then rinsed 3× with 1×PBS. For microplate assays, peptidoglycan was diluted in 1×PBS at concentrations between 0.0001 μM to 100 μM and 50 μL solution was added to the collagen coated wells. DS, peptide, or 1×PBS were also added to collagen coated wells as controls. Treatments were incubated at 37° C. with shaking at 200 rpm for 15 min. Wells were then rinsed of unbound treatment by removing the treatment solution, adding PBS, and shaking the wells for 24 hours. During the 24 hours, PBS solution was changed 3 times.
Human whole blood was collected from healthy volunteers by venipuncture. The first 5 mL of blood was discarded and approximately 20 mL was then collected into citrated glass vacutainers (BD Bioscience). Blood was centrifuged in the glass tube for 20 min at 200 g at 25° C. The top layer of the centrifuged blood, the platelet rich plasma (PRP), was used for platelet experiments.
PRP (50 μL/well) was added to the microplate for 1 hour at room temperature without shaking. After 1 hour of incubation, 45 μL of PRP was removed from each well and added to a microcentrifuge tube containing […] ETP (107 mM EDTA, 12 mM theophylline, and 2.8 mM prostaglandin E1) to inhibit further platelet activation. These tubes were spun at 4° C. for 30 min at 2000 g to pellet the platelets. The supernatant (platelet serum) was collected for ELISA studies to test for the presence of platelet activation markers PF-4 and NAP2. Sandwich ELISAs were utilized in order to detect each protein. The components for both sandwich ELISAs were purchased from R&D Systems and the provided protocols were followed. Platelet serum was diluted 10,000 times in 1% BSA in 1×PBS for values to fall within a linear range.
Platelet activation was measured through release of platelet factor 4 (PF4) and β-thromboglobulin (NAP2). […] Since the high SILY/DS ratio is expected to provide higher binding affinity to the collagen surface due to multiple interactions, peptidoglycans with the higher SILY/DS ratios were prepared.
The number of peptides per DS molecule was further increased to 18 to create the peptidoglycan DS-SILY18, and the concentration of molecule needed to inhibit platelet activation was tested. […] Within solubility limits, the number of peptides can be increased to achieve maximal platelet inhibition as well as to reduce diffusion over time, where a higher level of peptidoglycans on the denuded vessel wall is sustained.

For assay [4], the system named is Human coronary artery endothelial cells (ECs). The assay is described as follows: Endothelial cell proliferation. Type of assay: cell-based. Particulars: highest concentration tested (final concentrations 35, 3.5, and 0.35 μM); 48 hours. The method, then: Human coronary artery endothelial cells (ECs) (Lonza, Walkersville, Md.) were seeded in 96-well plates at a cell density of 1.5×10^3 cells/well. Cells were allowed to adhere to the surface for 24 hours and adherent ECs were stained using cell tracker green (Invitrogen, Carlsbad, Calif.). Initial cell number was determined by measuring fluorescence of each well with 492 nm excitation and 517 nm emission.
DS-SILY18 was solubilized in water at a concentration of […] and diluted in water 10 fold for concentrations of 175, 17.5, and 1.75 μM. The DS-SILY solution was diluted 5 fold with cell media for final concentrations of […]. The control consisted of diluting water 5 fold with cell media. 100 μL of media with DS-SILY was added to each well and the cell number was determined 48 hours later by measuring fluorescence. The percent change in cell number in each well was calculated.

For assay [5], the system named is Fibrillar collagen. The assay is described as follows: Peptidoglycan diffusion from collagen surface. Particulars: after 1 week of extensive rinsing at 37° C.; applied at 10 μM. Type of assay: binding. Here is the method:
The peptidoglycan OS-SILY18-biotin was dissolved at 10 μM in 1×PBS pH 7.4 with 2% BSA and was incubated on fibrillar collagen coated plates prepared as described. The plate was incubated at 37° C. on an orbital shaker and was rinsed extensively with 1×PBS pH 7.4. At various time points up to 11 days, OS-SILY18-biotin was detected on the surface as described for the binding affinity studies. The curve of diffusion of peptidoglycan from the collagen surface was fitted using a hyperbolic decay.
The diffusion of the peptidoglycan DS-SILY18 from a collagen surface was measured by incubating at 37° C. and rinsing extensively in order to mimic blood flow in vivo. Peptidoglycan was incubated on fibrillar collagen surfaces and detected by the same methods for calculating binding affinities. […] It is estimated that complete endothelial cell regrowth occurs within 1 week of balloon injury, and thus this time frame is useful for preventing platelet binding until endothelial cells grow back and provide a permanent cover to the underlying collagen.

As for “DS-SILY18: dermatan sulfate with 18 peptides of the sequence RRANAALKAGELYKSILYGC linked to the glycan (RRANAALKAGELYKSILYGC-NH2; also: 18 copies linked to dermatan sulfate)”, the Kd at Fibrillar collagen [1] came to 0.024 µM. Moreover, the “blood cell binding to collagen under flow” value in assay [2] is “inhibition; also recorded: much less blood cell binding to collagen”. In addition, the “concentration at which maximal inhibition of platelet activation was achieved” value in assay [3] is 10 µM. Moreover, the “endothelial cell proliferation (percent change in cell number)” value in assay [4] is “significant increase in cell proliferation”. Further, the “equivalent concentration remaining bound on collagen surface” value in the assay on Fibrillar collagen [5] is on record as “approximately 10 nM”.
